Results taken from US4883807A, “1,2,5,6-tetrahydropyridyl triazoles and tetrazoles useful as fungicides” (Imperial Chemical Industries PLC, priority 1986, dated 1989).

Key:
[1] = test system: Heliothis virescens; experiment: insecticidal test, tobacco budworm - larvae; assay type: in vivo; details: in Gossypium hirsutum, 72 h, read-out: grading of mortality, HV
Procedure: (§1) The activity of the compounds was determined using a variety of insect, mite and nematode pests. The compounds were used in the form of liquid preparations containing 500 parts per million (ppm) by weight of the compound except for the test on Meloidogyne incognita when liquid preparations of 250 ppm by weight were used. The preparations were made by dissolving the compounds in acetone and diluting the solutions with water containing 0.1% by weight of a wetting agent sold under the trade name "SYNPERONIC" NX until the liquid preparations contained the required concentration of the product. "SYNPERONIC" is a Registered Trade Mark.
(§2) The test procedure adopted with regard to each pest was basically the same and comprised supporting a number of the pests on a medium which was usually a host plant or a foodstuff on which the pests feed, and treating either or both the pests and the medium with the preparations. The mortality of the pests was then assessed at periods usually varying from one to seven days after the treatment.
(§3) The results of the tests are given in Table IX for each of the products as a grading of mortality designated as 9, 5 or 0 where 9 indicates 80-100% mortality (70-100% root-knot reduction as compared with untreated plants for Meloidogyne incognita), 5 indicates 50-79% mortality (50-69% root knot reduction for Meloidogyne incognita) and 0 indicates less than 50% mortality (root-knot reduction for Meloidogyne incognita).
(§4) In Table IX the pest organism used in designated by a letter code and the pests species, the support medium or food, and the type and duration of test is given in Table VII.

[2] = test system: Venturia inaequalis; experiment: foliar fungal disease control on plants, Venturia inaequalis on apple; assay type: in vivo; details: 100 ppm foliar spray plus root drench ca. 40 ppm a.i./dry soil, one or two days before inoculation
Procedure: (§5) The technique employed was as follows.
(§6) The plants were grown in John Innes Potting Compost (No. 1 or 2) in 4 cm diameter minipots. The test compounds were formulated either by bead milling with aqueous Dispersol T or as a solution in acetone or acetone/ethanol which was diluted to the required concentration immediately before use. For the foliage diseases, the formulations (100 ppm active ingredient) were sprayed on to the foliage and applied to the roots of the plants in the soil. The sprays were applied to maximum retention and the root drenches to a final concentration equivalent to approximately 40 ppm a.i./dry soil. Tween 20, to give a final concentration of 0.05%, was added when the sprays were applied to cereals.
(§7) For most of the tests the compound was applied to the soil (roots) and to the foliage (by spraying) one or two days before the plant was inoculated with the disease. An exception was the test on Erysiphe graminis in which the plants were inoculated 24 hours before treatment. Foliar pathogens were applied by spray as spore suspensions onto the leaves of test plants. After inoculation, the plants were put into an appropriate environment to allow infection to proceed and then incubated until the disease was ready for assessment. The period between inoculation and assessment varied from four to fourteen days according to the disease and environment.
(§8) The disease control was recorded by the following grading: […]

[3] = test system: Pyricularia oryzae; assay type: in vivo; details: 100 ppm foliar spray plus root drench ca. 40 ppm a.i./dry soil, one or two days before inoculation
[4] = test system: Diabrotica balteata; experiment: whole plant or invertebrate; details: in Zea mays, 72 h, read-out: grading of mortality, DB
[5] = test system: Phytophthora infestans; assay type: in vivo; details: 100 ppm foliar spray plus root drench ca. 40 ppm a.i./dry soil, one or two days before inoculation
[6] = test system: Blattella germanica; experiment: whole plant or invertebrate; details: 72 h, read-out: grading of mortality, BG
[7] = test system: Plasmopara viticola; experiment: foliar fungal disease control on plants, Plasmopara viticola on vine; assay type: in vivo; details: 100 ppm foliar spray plus root drench ca. 40 ppm a.i./dry soil, one or two days before inoculation
Procedure: as §5, §6, §7, §8

[8] = test system: Puccinia recondita; experiment: foliar fungal disease control on plants, Puccinia recondita on wheat; assay type: in vivo; details: 100 ppm foliar spray plus root drench ca. 40 ppm a.i./dry soil, one or two days before inoculation
Procedure: as §5, §6, §7, §8

[9] = test system: Myzus persicae; experiment: whole plant or invertebrate; details: in Brassica rapa, 72 h, read-out: grading of mortality, MP
[10] = test system: Nephotettix cincticeps; experiment: whole plant or invertebrate; details: in Oryza sativa, 72 h, read-out: grading of mortality, NC
[11] = test system: Musca domestica; experiment: whole plant or invertebrate; details: 24 h, read-out: grading of mortality, MD
[12] = test system: Erysiphe graminis; experiment: foliar fungal disease control on plants, Erysiphe graminis on barley; assay type: in vivo; details: 100 ppm foliar spray plus root drench ca. 40 ppm a.i./dry soil; inoculated 24 hours before treatment
Procedure: as §5, §6, §7, §8

[13] = test system: Cercospora arachidicola; experiment: foliar fungal disease control on plants, Cercospora arachidicola on peanut; assay type: in vivo; details: 100 ppm foliar spray plus root drench ca. 40 ppm a.i./dry soil, one or two days before inoculation
Procedure: as §5, §6, §7, §8

[14] = test system: Tetranychus urticae (spider mites - adult); experiment: whole plant or invertebrate; details: in Phaseolus vulgaris, 72 h, read-out: grading of mortality, TUa
[15] = test system: Tetranyhus urticae (spider mites - ova); experiment: whole plant or invertebrate; details: 144 h, read-out: grading of mortality, TUe
[16] = test system: Meloidogyne incognita; experiment: nematode test, tomato root knot eelworm - larvae, semi in-vitro; assay type: in vivo; details: 250 ppm, residual, 7 days
Procedure: as §1, §2, §3, §4

[17] = test system: Nilaparvata lugens; experiment: whole plant or invertebrate; details: in Oryza sativa, 72 h, read-out: grading of mortality, NL
[18] = test system: Spodoptera exigua; experiment: whole plant or invertebrate; details: in Gossypium hirsutum, 72 h, read-out: grading of mortality, SP
[19] = test system: Musca domestica; experiment: knockdown properties against houseflies; assay type: in vivo; details: 2000 ppm solution (1 ml) sprayed directly
Procedure: A sample of compound 3 was diluted in 2 mls acetone and made upto a 2000 ppm solution with 0.1% aqueous synperonic solution. The solution (1 ml) was then sprayed directly onto twenty mixed sex houseflies held in a drinking cup. Immediately after spraying the cups were inverted and left to dry. An assessment of knockdown was made when the cups were righted 15 minutes later. The flies were then provided with a 10% sucrose solution on a cotton wool pad, and held for 48 hours in a holding room conditioned at 25° C. and 65% relative humidity before a mortality assessment was made.

Row | SMILES | mortality at 500 ppm [1] [%] | disease control grading, VENTURIA INAEQUALIS (Apple) [2] | disease control grading, P[…] (Rice) [3] | mortality at 500 ppm [4] [%] | disease control grading, PH[…] (TOMATOES) [5] | mortality at 500 ppm [6] [%] | disease control grading, […] (Vine) [7] | disease control grading, PUCCINIA RECONDITA (Wheat) [8] | mortality at 500 ppm [9] [%] | mortality at 500 ppm [10] [%] | mortality at 500 ppm [11] [%] | disease control grading, ERYSIPHE GRAMINIS (Barley) [12] | disease control grading, CERCOSPCRA ARACHIDICOLA (Peanut) [13] | mortality at 500 ppm [14] [%] | mortality at 500 ppm [15] [%] | grading of root-knot reduction, MI [16] | mortality at 500 ppm [17] [%] | mortality at 500 ppm [18] [%] | knockdown ([19]; 15 minutes) [%] | kill ([19]; 48 hours, 25° C., 65% relative humidity) [%]
1 | CO/C=C(/C(=O)OC)n1cccc1/C=C/C(=O)OC | < 50 | 4 | 4 | < 50 | 4 | 80 to 100 | 4 | 4 | < 50 | 50 to 79 | < 50 | 4 | 2 (6-25% of disease on untreated plants) | 80 to 100 | < 50 | 0 (less than 50% mortality (root-knot reduction for Meloidogyne incognita)) |  |  |  | 
2 | CCOC(=O)/C=C/c1cccn1/C(=C\OC)C(=O)OC [(Z)-methyl 3-methoxy-2-[2-(E-2-carbethoxyethenyl)pyrrol-1-yl]acrylate] |  | 4 | 4 |  | 4 |  | 4 | 4 |  |  |  | 0 (60-100% of disease on untreated plants) | 4 |  |  |  |  |  |  | 
3 | CO/C=C(/C(=O)OC)n1cccc1/C=N/OC [Compound 1 of Table I] |  | 4 | 4 |  | 3 (trace - 5% of disease on untreated plants) |  | 4 | 4 |  |  |  | 4 | 4 |  |  |  |  |  |  | 
4 | CO/C=C(/C(=O)OC)n1cccc1/C=N\OC [Compound 2 of Table I] | < 50 | 4 | 3 (trace - 5% of disease on untreated plants) | 50 to 79 | 0 (60-100% of disease on untreated plants) | < 50 | 4 | 4 | 80 to 100 |  | < 50 | 4 | 4 | 80 to 100 | < 50 | 0 (less than 50% mortality (root-knot reduction for Meloidogyne incognita)) | < 50 | < 50 |  | 
5 | C=CCO/N=C/c1cccn1/C(=C\OC)C(=O)OC [Compound 3 of Table I] | < 50 | 4 |  | 80 to 100 | 0 (60-100% of disease on untreated plants) | 80 to 100 | 4 | 4 | < 50 |  | 80 to 100 | 4 | 4 | 80 to 100 | < 50 | 5 (50-69% root knot reduction for Meloidogyne incognita) | 80 to 100 | < 50 | 90 | 93
